# Legend:
# [1] = system: thrombin-induced platelet aggregation; assay: Platelet aggregation induced by thrombin (turbidimetric, washed platelet suspension); type: cell-based, rabbit; settings: for IC50: rabbit platelets incubated with test compound at 37° C. for 1 min, then thrombin (0.1 unit/mL); for inhibition of thrombin-induced platelet aggregation (in words): discussion of Table 1
# Protocol: (§1) Collagen (type 1, bovine Achilles tendon), obtained from Sigma Chemical Co., was homogenized in […] HOAc and stored at −70° C. Arachidonic acid, bovine serum albumin (BSA), EDTA (disodium salt), sodium citrate, dimethyl sulfoxide (DMSO), and platelet activating factor (PAF) were purchased from Sigma Chemical Co. Thrombin (bovine) was obtained from Parke-Davis Co. and dissolved in 50% (viv) glycerol to give a stock solution of 100 NIH units/mL.
# (§2) Blood was collected from the rabbit marginal ear vein and was mixed with EDTA to a final concentration of 6 mM. It was centrifuged at 90 g for 10 min at room temperature, and the supernatant was obtained as platelet-rich plasma. The latter was further centrifuged at 500 g for 10 min. The platelet pellets were washed with Tyrode's solution without EDTA. After centrifugation at the same conditions, the platelet pellets were finally suspended in Tyrode's solution of the following composition (mM): NaCl (136.8), KCl (2.81, NaHCO3 (11.9), MgCl2 (1.1), NaH2PO4 (0.33), CaCl2 (1.0), and glucose (11.2). Platelet numbers were counted by Coulter Counter (Model ZM) and adjusted to 4.5×10^8 […].
# (§3) Aggregation was measured by the turbidmetric method with a dual-channel Lumiaggregometer (Model 1020, Payton, Canada). All glassware was siliconized. One minute before the addition of the aggregation inducer, the platelet suspension was stirred at 900 rpm. The percentage of aggregation was calculated as described previously.
# [2] = system: AA-induced platelet aggregation; assay: Platelet aggregation induced by AA (turbidimetric, washed platelet suspension); type: cell-based, rabbit; settings: for IC50: rabbit platelets incubated with test compound at 37° C. for 1 min, then AA (100 μM); for inhibition of AA-induced platelet aggregation (in words): discussion of Table 1
# Protocol: as §1, §2, §3
# [3] = system: collagen-induced platelet aggregation; assay: Platelet aggregation induced by collagen (turbidimetric, washed platelet suspension); type: cell-based, rabbit; settings: for IC50: rabbit platelets incubated with test compound at 37° C. for 1 min, then collagen (10 μg/mL); for inhibition of collagen-induced platelet aggregation (in words): discussion of Table 1
# Protocol: as §1, §2, §3
# [4] = system: PAF-induced platelet aggregation; assay: Platelet aggregation induced by PAF (turbidimetric, washed platelet suspension); type: cell-based, rabbit; settings: for IC50: rabbit platelets incubated with test compound at 37° C. for 1 min, then PAF (2 ng/mL); for inhibition of PAF-induced platelet aggregation (in words): discussion of Table 1
# Protocol: as §1, §2, §3
# [5] = system: platelet aggregation; assay: Antiplatelet aggregation activity, overall statements over the four inducers; type: cell-based, rabbit; settings: discussion of Table 1, all inducers
# Protocol: as §1, §2, §3
# [6] = Oryctolagus cuniculus, Platelet, 1 min
IC50 [1] [µM],IC50 [2] [µM],IC50 [3] [µM],IC50 [4] [µM],"IC50 [1, 6] [µM]","IC50 [2, 6] [µM]","IC50 [3, 6] [µM]","IC50 [4, 6] [µM]",melting point [°C],Compound,anti-platelet activity overall (in words) [5],inhibition of collagen-induced platelet aggregation (in words) [3],inhibition of PAF-induced platelet aggregation (in words) [4],inhibition of thrombin-induced platelet aggregation (in words) [1],inhibition of AA-induced platelet aggregation (in words) [2]
> 300,38.2,51.1,> 300,,,,,,"O=C(c1ccccc1)n1cc(-c2ccc(CO)o2)c2ccccc21 [Compound 32, N-Benzoyl-3-(5′-hydroxymethyl-2′-furyl)indole]",,excellent inhibitory activity,inefficient,inefficient,excellent inhibitory activity
175,90.9,83.9,169,,,,,,"COc1cccc(C(=O)n2cc(-c3ccc(CO)o3)c3ccccc32)c1 [Compound 33, N-(3′-Methoxybenzoyl)-3-(5′-hydroxymethyl-2′-furyl)indole]",comparable with YC-1,significant inhibition,significant inhibition,significant inhibition,significant inhibition
> 300,2.9,30.9,270,,,,,,"COc1ccc(C(=O)n2cc(-c3ccc(CO)o3)c3ccccc32)cc1 [Compound 34, N-(4′-Methoxybenzoyl)-3-(5′-hydroxymethyl-2′-furyl)indole]",,potent inhibition,poor inhibition,poor inhibition,potent inhibition
,,,,180,57,54.6,90,,"OCc1ccc(-c2nn(Cc3ccccc3)c3ccccc23)o1 [YC-1, 1-benzyl-3-(5′-hydroxymethyl-2′-furyl)indazole]",,,,,
,,,,193,101,123,143,,"OCc1ccc(-c2nn(Cc3ccccc3)c3ccccc23)cc1 [YD-1, 1-benzyl-3-(4-hydroxymethylphenyl)indazole, reference compound]",,,,,

# The next lines start with the molecule.
Compound,IC50 [1] [µM],IC50 [2] [µM],IC50 [3] [µM],IC50 [4] [µM],"IC50 [1, 6] [µM]","IC50 [2, 6] [µM]","IC50 [3, 6] [µM]","IC50 [4, 6] [µM]",melting point [°C],anti-platelet activity overall (in words) [5],inhibition of collagen-induced platelet aggregation (in words) [3],inhibition of PAF-induced platelet aggregation (in words) [4],inhibition of thrombin-induced platelet aggregation (in words) [1],inhibition of AA-induced platelet aggregation (in words) [2]
"OCc1ccc(-c2cn(Cc3ccccc3)c3ccccc23)o1 [Compound 7, N-Benzyl-3-(5′-hydroxymethyl-2′-furyl)indole]",> 300,> 300,> 300,> 300,,,,,,nearly no anti-platelet activity,,,,
"OCc1ccc(-c2cn(Cc3ccccc3)c3ccccc23)s1 [Compound 8, N-Benzyl-3-(5′-hydroxymethyl-2′-thienyl)indole]",> 300,> 300,> 300,> 300,,,,,,did not improve its activity,,,,
"OCc1ccc(-c2cn(Cc3ccccc3)c3ccccc23)cc1 [Compound 10, N-Benzyl-3-(4-hydroxymethylphenyl)indole]",,,,,> 300,> 300,168,170,122,,inhibited,inhibited,,
"O=S(=O)(c1ccccc1)n1cc(-c2ccc(CO)o2)c2ccccc21 [Compound 16, N-Benzenesulfonyl-3-(5′-hydroxymethyl-2′-furyl)indole]",173,94.9,73.7,164,,,,,,,significant inhibition,significant inhibition,significant inhibition,significant inhibition
"O=S(=O)(c1ccccc1)n1cc(-c2ccc(CO)s2)c2ccccc21 [Compound 17, N-Benzenesulfonyl-3-(5′-hydroxymethyl-2′-thienyl)indole]",> 300,154,131,171,,,,,,,excellent inhibitory activity,excellent inhibitory activity,impaired its inhibitory activity,excellent inhibitory activity

# Source: patent US7176230B2, “Synthesis of indole analogs of 1-benzyl-3-(5′-hydroxymethyl-2′-furyl) indazole (YC-1) as anti-platelet agents” (Industrial Technology Research Institute, priority 2004, dated 2007)
